Like-named read-outs stand apart in the source and are kept apart here.
Key:
[1] = logP by HPLC, reverse-phase column (C 18), acidic range; assay type: physicochemical
Procedure: Temperature: 43° C. (a) Mobile phases for the determination in the acidic range: 0.1% aqueous phosphoric acid, acetonitrile; linear gradient from 10% acetonitrile to 90% acetonitrile—the corresponding data in Table 1 are labelled^a). […] Temperature: 43° C. (a) Mobile phases for the determination in the acidic range: 0.1% aqueous phosphoric acid, acetonitrile; linear gradient from 10% acetonitrile to 90% acetonitrile—the corresponding data in Table 2 are labelled^a).

[2] = test system: crop plants, such as, for example, maize; assay: Pre-emergence test, crop plant tolerance; assay type: in vivo; conditions: rated after three weeks
Excerpt: (§1) Solvent: 5 parts by weight of acetone
(§2) Emulsifier: 1 part by weight of alkylaryl polyglycol ether
Seeds of the test plants are sown in normal soil.
(§3) After three weeks, the degree of damage to the plants is rated in % damage in comparison to the development of the untreated control.

weeds [3] = assay: Post-emergence test, weeds; assay type: in vivo; conditions: plants of 5 to 15 cm sprayed, rated after three weeks
Procedure: as §1, §2
To produce a suitable preparation of active compound, 1 part by weight of active compound is mixed with the stated amount of solvent, the stated amount of emulsifier is added and the concentrate is diluted with water to the desired concentration.
Test plants of a height of 5 to 15 cm are sprayed with the preparation of active compound such that the particular amounts of active compound desired are applied per unit area. The concentration of the spray liquor is chosen so that the particular amounts of active compound are applied in 1000 l of water/ha.
as §3
0%=no effect (like untreated control)

weeds [4] = assay: Pre-emergence test, weeds; assay type: in vivo; conditions: soil sprayed, rated after three weeks
Procedure: Pre-emergence Test Solvent: 5 parts by weight of acetone Emulsifier: 1 part by weight of alkylaryl polyglycol ether To produce a suitable preparation of active compound, 1 part by weight of active compound is mixed with the stated amount of solvent, the stated amount of emulsifier is added and the concentrate is diluted with water to the desired concentration. Seeds of the test plants are sown in normal soil. After about 24 hours, the soil is sprayed with the preparation of active compound such that the particuiar amount of active compound desired is applied per unit area. The concentration of the spray liquor is chosen so that the particular amount of active compound desired is applied in 1000 litres of water per hectare. After three weeks, the degree of damage to the plants is rated in % damage in comparison to the development of the untreated control. The figures denote: 0%=no effect (like untreated control) 100%=total destruction

[5] = a) acidic range: 0.1% aqueous phosphoric acid, acetonitrile, 43° C., Table 1

SMILES | tolerated by crop plants [2] | activity against weeds (weeds [3]) | activity against weeds (weeds [4]) | logP [1, 5] | logP [1] | further results
CCOc1nn(Cc2cc(C(F)(F)F)ccc2C(=O)C(C#N)C(=O)C2CC2)c(=O)n1C1CC1 (stereo not drawn) [Example 1, 3-cyclopropyl-2-{2-[4-(cyclopropyl-3-ethoxy-5-oxo-4,5-dihydro-1H-1,2,4-triazol-1-yl)-methyl]4-trifluoromethyl-benzoyl}-3-oxo-propanenitrile] | tolerated well | strong activity | strong activity | – | – | chromatographic logP ([1]; reverse-phase HPLC column (C 18), determined at pH=2): 3.35
CSc1nn(Cc2cc(C(F)(F)F)ccc2C(=O)C(C#N)C(=O)C2CC2)c(=O)n1C1CC1 (stereo not drawn) [Example 2] | tolerated well | strong activity | strong activity | (IA) logP = 2.92^a) | – | –
CCOc1nn(Cc2cc(C(F)(F)F)ccc2C(=O)C(C#N)C(=O)C2CC2)c(=O)n1C (stereo not drawn) [Example 3] | tolerated well | strong activity | strong activity | (IA) logP = 3.03^a) | – | –
CSc1nn(Cc2cc(Br)ccc2C(=O)C(C#N)C(=O)C2CC2)c(=O)n1C (stereo not drawn) [Example 5] | tolerated well | strong activity | strong activity | (IA) logP = 2.83^a) | – | –
CCOc1nn(Cc2cc(Br)ccc2C(=O)C(C#N)C(=O)C2CC2)c(=O)n1C (stereo not drawn) [Example 6] | tolerated well | strong activity | strong activity | (IA) logP = 2.94^a) | – | –
CN(C)c1nn(Cc2cc(F)ccc2C(=O)C(C#N)C(=O)C2CC2)c(=O)n1C (stereo not drawn) [Example 7] | – | – | – | – | (IA) logP = 2.28^a) | –
COc1nn(Cc2cc(F)ccc2C(=O)C(C#N)C(=O)C2CC2)c(=O)n1C1CC1 (stereo not drawn) [Example 8] | – | – | – | – | (IA) logP = 2.56^a) | –
CSc1nn(Cc2cc(S(C)(=O)=O)ccc2C(=O)C(C#N)C(=O)C2CC2)c(=O)n1C (stereo not drawn) [Example 9] | – | – | – | – | (IA) logP = 1.74^a) | –
Cc1nn(Cc2cc(C(F)(F)F)ccc2C(=O)C(C#N)C(=O)C2CC2)c(=O)n1C (stereo not drawn) [Example 10] | – | – | – | – | (IA) logP = 2.35^a) | –
CCOc1nn(Cc2cc(C(F)(F)F)ccc2C(=O)O)c(=O)n1C [III-2, 5-ethoxy-4-methyl-2-(2-carboxy-5-trifluoromethyl-benzyl)-2,4-dihydro-3H-1,2,4-triazol-3-one] | – | – | – | – | – | chromatographic logP ([1]; reverse-phase HPLC column (C 18); a) acidic range, starting material of formula (III)): 2.18
Cn1c(C(F)(F)F)nn(Cc2c(Cl)ccc(C(=O)O)c2Cl)c1=O [III-3, 4-methyl-5-trifluoromethyl-2-(2,6-dichloro-3-carboxy-benzyl)-2,4-dihydro-3H-1,2,4-triazol-3-one] | – | – | – | – | – | melting point: 207 °C
CCOn1c(CC)nn(Cc2cc(C(F)(F)F)ccc2C(=O)c2c(C(=O)OC)noc2C2CC2)c1=O [IV-1, (5-cyclopropyl-3-methoxycarbonyl-isoxazol-4-yl)-[2-(4-ethoxy-3-ethyl-5-oxo-4,5-dihydro-[1,2,4]-triazol-1-yl-methyl)-4-trifluoromethyl-phenyl]-methanone] | – | – | – | – | – | chromatographic logP ([1]; reverse-phase HPLC column (C 18), determined at pH=2.3, starting material of formula (IV)): 3.56
